Laboratory results reported in PMC6268188, “Comparative Studies of the (Anti) Mutagenicity of Baccharis dracunculifolia and Artepillin C by the Bacterial Reverse Mutation Test” (Molecules, 2012).
Several values for one entry are separate records, joined by “and”; a condition that tells them apart may be missing. Identical values can stand only once. Like-named read-outs stand apart in the source and are kept apart here. Marks after values point to notes of the source that are not given here.

Key:
S. typhimurium TA100 [1] = settings: 5.49 µg/plate
S. typhimurium TA100 [2] = system: S. typhimurium TA100
[3] = system: DNA damage induced by methyl methanesulfonate and doxorubicin; settings: micronucleus and comet assays; cited from earlier work
[4] = 0.69 µg/plate + AFB1 0.5 μg/plate, TA 100, + S9
[5] = 0.69 µg/plate + SA 1.25 μg/plate, TA 100, − S9
[6] = 1.37 µg/plate + AFB1 0.5 μg/plate, TA 100, + S9
[7] = 1.37 µg/plate + SA 1.25 μg/plate, TA 100, − S9
[8] = 2.75 µg/plate + AFB1 0.5 μg/plate, TA 100, + S9
[9] = 2.75 µg/plate + SA 1.25 μg/plate, TA 100, − S9
[10] = 5.49 µg/plate + AFB1 0.5 μg/plate, TA 100, + S9
[11] = 5.49 µg/plate + SA 1.25 μg/plate, TA 100, − S9
[12] = […] + SA 1.25 μg/plate, TA 100, − S9
[13] = 0.69 µg/plate + AA 1.25 μg/plate, TA 97a, + S9
[14] = 0.69 µg/plate + NOPD 10.0 μg/plate, TA 97a, − S9
[15] = 1.37 µg/plate + AA 1.25 μg/plate, TA 97a, + S9
[16] = 1.37 µg/plate + NOPD 10.0 μg/plate, TA 97a, − S9
[17] = 2.75 µg/plate + AA 1.25 μg/plate, TA 97a, + S9
[18] = 2.75 µg/plate + NOPD 10.0 μg/plate, TA 97a, − S9
[19] = 5.49 µg/plate + AA 1.25 μg/plate, TA 97a, + S9
[20] = 5.49 µg/plate + NOPD 10.0 μg/plate, TA 97a, − S9
[21] = […] + AA 1.25 μg/plate, TA 97a, + S9
[22] = […] + NOPD 10.0 μg/plate, TA 97a, − S9

CC(C)=CCc1cc(/C=C/C(=O)O)cc(CC=C(C)C)c1O [ArtC, 3-{4-hydroxy-3,5-di(3-methyl-2-butenyl)phenyl}-2(E)-propenoic acid]
MI (mutagenicity index) (S. typhimurium TA100 [1]; TA 100, + S9): 0.9
Number of revertants (M ± SD)/ plate (S. typhimurium TA100 [1]; TA 100, + S9): 153 ± 2 revertants/plate
MI (mutagenicity index) (S. typhimurium TA100 [1]; TA 100, − S9): 1.0
Number of revertants (M ± SD)/ plate (S. typhimurium TA100 [1]; TA 100, − S9): 158 ± 7 revertants/plate
MI (mutagenicity index) (S. typhimurium TA102; 0.69 µg/plate, TA 102, + S9): 0.9
Number of revertants (M ± SD)/ plate (S. typhimurium TA102; 0.69 µg/plate, TA 102, + S9): 204 ± 4 revertants/plate
MI (mutagenicity index) (S. typhimurium TA102; 0.69 µg/plate, TA 102, − S9): 0.9
Number of revertants (M ± SD)/ plate (S. typhimurium TA102; 0.69 µg/plate, TA 102, − S9): 204 ± 4 revertants/plate
MI (mutagenicity index) (S. typhimurium TA102; 1.37 µg/plate, TA 102, + S9): 1.0
Number of revertants (M ± SD)/ plate (S. typhimurium TA102; 1.37 µg/plate, TA 102, + S9): 213 ± 3 revertants/plate
MI (mutagenicity index) (S. typhimurium TA102; 1.37 µg/plate, TA 102, − S9): 1.0
Number of revertants (M ± SD)/ plate (S. typhimurium TA102; 1.37 µg/plate, TA 102, − S9): 213 ± 3 revertants/plate
MI (mutagenicity index) (S. typhimurium TA102; 2.75 µg/plate, TA 102, + S9): 0.9
Number of revertants (M ± SD)/ plate (S. typhimurium TA102; 2.75 µg/plate, TA 102, + S9): 187 ± 5 revertants/plate
MI (mutagenicity index) (S. typhimurium TA102; 2.75 µg/plate, TA 102, − S9): 0.9
Number of revertants (M ± SD)/ plate (S. typhimurium TA102; 2.75 µg/plate, TA 102, − S9): 187 ± 5 revertants/plate
MI (mutagenicity index) (S. typhimurium TA102; 5.49 µg/plate, TA 102, + S9): 1.0
Number of revertants (M ± SD)/ plate (S. typhimurium TA102; 5.49 µg/plate, TA 102, + S9): 215 ± 5 revertants/plate
MI (mutagenicity index) (S. typhimurium TA102; 5.49 µg/plate, TA 102, − S9): 1.0
Number of revertants (M ± SD)/ plate (S. typhimurium TA102; 5.49 µg/plate, TA 102, − S9): 215 ± 5 revertants/plate
MI (mutagenicity index) (S. typhimurium TA102; Salmonella typhimurium): 203 ± 6 (0.9)
Number of revertants (M ± SD)/ plate (S. typhimurium TA102; Salmonella typhimurium): 203 ± 6 (0.9) revertants/plate
% inhibition (S. typhimurium TA100 [2]): 30 ** %
Number of revertants (M ± SD)/ plate (S. typhimurium TA100 [2]): 1885 ± 25 revertants/plate and 1507 ± 43 revertants/plate
antimutagenic effect class (S. typhimurium TA100 [2]): 30 ** (key: *: no antimutagenic effect (< 25% inhibition); **: moderate effect (25% - 40% inhibition); ***: strong antimutagenic effect (> 40% inhibition))
% inhibition (S. typhimurium TA100 [2]; [4]): 26%
Number of revertants (M ± SD)/ plate (S. typhimurium TA100 [2]; [4]): 1595 ± 37 revertants/plate
% inhibition (S. typhimurium TA100 [2]; [5]): 16%
Number of revertants (M ± SD)/ plate (S. typhimurium TA100 [2]; [5]): 1833 ± 48 revertants/plate
antimutagenic effect class (S. typhimurium TA100 [2]; [5]): * (no antimutagenic effect (< 25% inhibition))
% inhibition (S. typhimurium TA100 [2]; [6]): 24%
Number of revertants (M ± SD)/ plate (S. typhimurium TA100 [2]; [6]): 1639 ± 33 revertants/plate
antimutagenic effect class (S. typhimurium TA100 [2]; [6]): * (no antimutagenic effect (< 25% inhibition))
% inhibition (S. typhimurium TA100 [2]; [7]): 11%
Number of revertants (M ± SD)/ plate (S. typhimurium TA100 [2]; [7]): 1957 ± 36 revertants/plate
antimutagenic effect class (S. typhimurium TA100 [2]; [7]): * (no antimutagenic effect (< 25% inhibition))
% inhibition (S. typhimurium TA100 [2]; [8]): 27%
Number of revertants (M ± SD)/ plate (S. typhimurium TA100 [2]; [8]): 1575 ± 11 revertants/plate
% inhibition (S. typhimurium TA100 [2]; [9]): 17%
Number of revertants (M ± SD)/ plate (S. typhimurium TA100 [2]; [9]): 1813 ± 24 revertants/plate
antimutagenic effect class (S. typhimurium TA100 [2]; [9]): * (no antimutagenic effect (< 25% inhibition))
% inhibition (S. typhimurium TA100 [2]; [10]): 26%
Number of revertants (M ± SD)/ plate (S. typhimurium TA100 [2]; [10]): 1600 ± 38 revertants/plate
% inhibition (S. typhimurium TA100 [2]; [11]): 21%
Number of revertants (M ± SD)/ plate (S. typhimurium TA100 [2]; [11]): 1727 ± 39 revertants/plate
antimutagenic effect class (S. typhimurium TA100 [2]; [11]): * (no antimutagenic effect (< 25% inhibition))
inhibition of AFB1-induced mutation (text; number = highest observed percent inhibition) (S. typhimurium TA100 [2]; TA100, with metabolic activation, AFB1): did inhibit mutation
% inhibition (S. typhimurium TA100 [2]; [12]): 14%
antimutagenic effect class (S. typhimurium TA100 [2]; [12]): * (no antimutagenic effect (< 25% inhibition))
Number of revertants (M ± SD)/ plate (S. typhimurium TA97a): 891 ± 17 revertants/plate and 1602 ± 17 revertants/plate
% inhibition (S. typhimurium TA97a; [13]): 14%
Number of revertants (M ± SD)/ plate (S. typhimurium TA97a; [13]): 1603 ± 26 revertants/plate
antimutagenic effect class (S. typhimurium TA97a; [13]): * (no antimutagenic effect (< 25% inhibition))
% inhibition (S. typhimurium TA97a; [14]): 21%
Number of revertants (M ± SD)/ plate (S. typhimurium TA97a; [14]): 876 ± 8 revertants/plate
antimutagenic effect class (S. typhimurium TA97a; [14]): * (no antimutagenic effect (< 25% inhibition))
% inhibition (S. typhimurium TA97a; [15]): 13%
Number of revertants (M ± SD)/ plate (S. typhimurium TA97a; [15]): 1617 ± 16 revertants/plate
antimutagenic effect class (S. typhimurium TA97a; [15]): * (no antimutagenic effect (< 25% inhibition))
% inhibition (S. typhimurium TA97a; [16]): 22%
Number of revertants (M ± SD)/ plate (S. typhimurium TA97a; [16]): 862 ± 14 revertants/plate
antimutagenic effect class (S. typhimurium TA97a; [16]): * (no antimutagenic effect (< 25% inhibition))
% inhibition (S. typhimurium TA97a; [17]): 10%
Number of revertants (M ± SD)/ plate (S. typhimurium TA97a; [17]): 1669 ± 19 revertants/plate
antimutagenic effect class (S. typhimurium TA97a; [17]): * (no antimutagenic effect (< 25% inhibition))
% inhibition (S. typhimurium TA97a; [18]): 20%
Number of revertants (M ± SD)/ plate (S. typhimurium TA97a; [18]): 885 ± 19 revertants/plate
antimutagenic effect class (S. typhimurium TA97a; [18]): * (no antimutagenic effect (< 25% inhibition))
% inhibition (S. typhimurium TA97a; [19]): 13%
Number of revertants (M ± SD)/ plate (S. typhimurium TA97a; [19]): 1620 ± 21 revertants/plate
antimutagenic effect class (S. typhimurium TA97a; [19]): * (no antimutagenic effect (< 25% inhibition))
% inhibition (S. typhimurium TA97a; [20]): 16%
Number of revertants (M ± SD)/ plate (S. typhimurium TA97a; [20]): 933 ± 7 revertants/plate
antimutagenic effect class (S. typhimurium TA97a; [20]): * (no antimutagenic effect (< 25% inhibition))
reduction of NOPD mutagenicity (S. typhimurium TA97a; TA97a, NOPD): no antimutagenic activity
reduction of AA mutagenicity (S. typhimurium TA97a; TA97a, with metabolic activation, AA): no antimutagenic activity
% inhibition (S. typhimurium TA97a; [21]): 14%
antimutagenic effect class (S. typhimurium TA97a; [21]): * (no antimutagenic effect (< 25% inhibition))
% inhibition (S. typhimurium TA97a; [22]): 19%
antimutagenic effect class (S. typhimurium TA97a; [22]): * (no antimutagenic effect (< 25% inhibition))
protection against DNA damage [3]: able to protect against DNA damage
